From article PMC9144902, “Metal(II) Complexes of the Fluoroquinolone Fleroxacin: Synthesis, Characterization and Biological Profile” (Pharmaceutics, 2022)

Key:
[1] = tested on: Bacillus subtilis ATCC 6633; assay: Antimicrobial activity, MIC determination; type: cell-based; details: B. subtilis; 24-h incubation, 37°C
Method in brief: (§1)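 Broth microdilution MIC in Mueller–Hinton broth, inoculum 0.5 McFarland, compounds added from DMSO working solutions at 2:98. After 24 h (37°C; X. campestris at 28°C), MIC is the lowest concentration inhibiting visible growth, by OD600 turbidity, in at least two of triplicate cultures.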

[2] = tested on: Staphylococcus aureus ATCC 6538; assay: Antimicrobial activity, MIC determination; type: cell-based; details: S. aureus; 24-h incubation, 37°C
[3] = tested on: Xanthomonas campestris ATCC 1395; assay: Antimicrobial activity, MIC determination; type: cell-based; details: X. campestris; 24-h incubation, 28°C
Method in brief: as §1

[4] = biological target: T1, bovine serum albumin (BSA) (Bos taurus, UniProt P02769); assay: Albumin binding by tryptophan fluorescence emission quenching; details: for K(BSA), BSA-binding constant / kq(BSA), BSA-quenching constant: BSA 3 μM; for K(BSA), BSA-binding constant: buffer pH 7.0, Scatchard equation; for kq(BSA), BSA-quenching constant: buffer pH 7.0, λexc 295 nm, Stern–Volmer, τ0 = 10^–8 s; for BSA fluorescence, % of the initial fluorescence intensity (I/Io): λem,max = 342 nm, final value of titration (Figure S11)
T1 construct: purchased
Method in brief: (§2)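 Compound binding to serum albumin monitored by quenching of albumin tryptophan fluorescence emission. Quenching constants (kq) derived from Stern–Volmer equation; binding constants (K) from Scatchard equation.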

[5] = biological target: T2, human serum albumin (HSA) (Homo sapiens, UniProt P02768); assay: as above; details: for K(HSA), HSA-binding constant / kq(HSA), HSA-quenching constant: HSA 3 μM; for K(HSA), HSA-binding constant: buffer pH 7.0, Scatchard equation; for kq(HSA), HSA-quenching constant: buffer pH 7.0, λexc 295 nm, Stern–Volmer, τ0 = 10^–8 s; for HSA fluorescence, % of the initial fluorescence intensity (I/Io): λem,max = 351 nm, final value of titration (Figure S10)
T2 construct: purchased
Method in brief: as §2

T1 sequence (P02769 25-607): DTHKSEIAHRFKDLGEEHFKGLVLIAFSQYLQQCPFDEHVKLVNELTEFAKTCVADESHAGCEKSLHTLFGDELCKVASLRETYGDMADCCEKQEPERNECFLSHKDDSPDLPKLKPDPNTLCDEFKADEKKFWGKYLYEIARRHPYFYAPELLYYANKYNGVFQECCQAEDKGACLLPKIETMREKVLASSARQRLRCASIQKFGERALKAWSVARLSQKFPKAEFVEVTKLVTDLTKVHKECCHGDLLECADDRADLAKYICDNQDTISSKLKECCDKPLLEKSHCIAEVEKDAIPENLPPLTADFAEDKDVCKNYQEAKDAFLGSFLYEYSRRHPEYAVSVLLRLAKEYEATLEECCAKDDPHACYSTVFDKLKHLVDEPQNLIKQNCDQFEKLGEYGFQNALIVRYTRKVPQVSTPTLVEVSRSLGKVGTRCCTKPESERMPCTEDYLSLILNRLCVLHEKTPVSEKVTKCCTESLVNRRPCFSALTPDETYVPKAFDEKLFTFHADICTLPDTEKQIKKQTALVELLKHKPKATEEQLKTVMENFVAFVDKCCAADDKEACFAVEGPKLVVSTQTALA
T2 sequence (P02768 25-609): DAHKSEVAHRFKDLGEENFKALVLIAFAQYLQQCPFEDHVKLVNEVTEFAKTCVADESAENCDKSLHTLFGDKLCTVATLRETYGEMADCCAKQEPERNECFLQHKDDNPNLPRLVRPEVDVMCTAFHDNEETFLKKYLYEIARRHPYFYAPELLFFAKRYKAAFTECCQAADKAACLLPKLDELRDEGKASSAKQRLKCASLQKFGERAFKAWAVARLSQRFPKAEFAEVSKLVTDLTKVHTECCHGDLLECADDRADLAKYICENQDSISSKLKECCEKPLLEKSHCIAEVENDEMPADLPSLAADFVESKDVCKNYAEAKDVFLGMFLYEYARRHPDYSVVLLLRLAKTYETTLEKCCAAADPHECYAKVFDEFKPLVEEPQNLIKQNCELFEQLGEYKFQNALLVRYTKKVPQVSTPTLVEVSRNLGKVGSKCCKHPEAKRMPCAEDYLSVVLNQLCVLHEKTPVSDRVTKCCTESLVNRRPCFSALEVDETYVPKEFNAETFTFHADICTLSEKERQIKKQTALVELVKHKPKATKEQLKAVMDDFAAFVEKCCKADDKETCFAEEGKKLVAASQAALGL

| Structure (SMILES) | MIC [1] [µg/mL] | MIC (values in parentheses) [1] [µM] | MIC [2] [µg/mL] | MIC (values in parentheses) [2] [µM] | MIC [3] [µg/mL] | MIC (values in parentheses) [3] [µM] | K(BSA), BSA-binding constant [4] | kq(BSA), BSA-quenching constant [4] | BSA fluorescence, % of the initial fluorescence intensity (I/Io) [4] [%] | K(HSA), HSA-binding constant [5] | kq(HSA), HSA-quenching constant [5] | HSA fluorescence, % of the initial fluorescence intensity (I/Io) [5] [%] |
| --- | --- | --- | --- | --- | --- | --- | --- | --- | --- | --- | --- | --- |
| CN1CCN(c2c(F)cc3c(=O)c(C(=O)[O-])cn(CCF)c3c2F)CC1.CN1CCN(c2c(F)cc3c(=O)c(C(=O)[O-])cn(CCF)c3c2F)CC1.[Mn+2].c1cnc2c(c1)ccc1cccnc12 [complex 11, [Mn(flrx)2(phen)]] | 8 | 8.2 | 8 | 8.2 | 16 | 16.4 | 1.09(±0.03) × 10^5 M^−1 | 1.65(±0.04) × 10^13 M^−1s^−1 | 25.2 | 1.01(±0.04) × 10^5 M^−1 | 1.03(±0.01) × 10^13 M^−1s^−1 | 34.2 |
| CN1CCN(c2c(F)cc3c(=O)c(C(=O)[O-])cn(CCF)c3c2F)CC1.CN1CCN(c2c(F)cc3c(=O)c(C(=O)[O-])cn(CCF)c3c2F)CC1.[Co+2].c1ccc(-c2ccccn2)nc1 [complex 15, [Co(flrx)2(bipy)]] | 8 | 8.4 | 4 | 4.2 | 16 | 16.8 | 2.84(±0.11) × 10^5 M^−1 | 5.12(±0.17) × 10^13 M^−1s^−1 | 9.2 | 8.13(±0.25)×10^4 M^−1 | 1.56(±0.05) × 10^13 M^−1s^−1 | 26.1 |
| CN1CCN(c2c(F)cc3c(=O)c(C(=O)[O-])cn(CCF)c3c2F)CC1.CN1CCN(c2c(F)cc3c(=O)c(C(=O)[O-])cn(CCF)c3c2F)CC1.[Co+2].c1ccc(Nc2ccccn2)nc1 [complex 16, [Co(flrx)2(bipyam)]] | 8 | 8.3 | 8 | 8.3 | 16 | 16.5 | 1.44(±0.04) × 10^5 M^−1 | 1.98(±0.05) × 10^13 M^−1s^−1 | 22.2 | 9.61(±0.36) × 10^4 M^−1 | 9.35(±0.22) × 10^12 M^−1s^−1 | 36.1 |
| CN1CCN(c2c(F)cc3c(=O)c(C(=O)[O-])cn(CCF)c3c2F)CC1.CN1CCN(c2c(F)cc3c(=O)c(C(=O)[O-])cn(CCF)c3c2F)CC1.[Co+2].c1cnc2c(c1)ccc1cccnc12 [complex 17, [Co(flrx)2(phen)]] | 8 | 8.0 | 8 | 8.0 | 16 | 16.0 | 1.44(±0.03) × 10^5 M^−1 | 1.50(±0.03) × 10^13 M^−1s^−1 | 26.3 | 5.18(±0.32) × 10^4 M^−1 | 6.49(±0.21) × 10^12 M^−1s^−1 | 44.5 |
| CN1CCN(c2c(F)cc3c(=O)c(C(=O)[O-])cn(CCF)c3c2F)CC1.CN1CCN(c2c(F)cc3c(=O)c(C(=O)[O-])cn(CCF)c3c2F)CC1.[Ni+2].c1ccc(Nc2ccccn2)nc1 [complex 18, [Ni(flrx)2(bipyam)]] | 8 | 8.3 | 8 | 8.3 | 32 | 33.0 | 4.77(±0.15) × 10^4 M^−1 | 1.56(±0.07) × 10^13 M^−1s^−1 | 25.2 | 7.13(±0.17) × 10^4 M^−1 | 6.94(±0.10) × 10^12 M^−1s^−1 | 44.5 |
| CN1CCN(c2c(F)cc3c(=O)c(C(=O)[O-])cn(CCF)c3c2F)CC1.CN1CCN(c2c(F)cc3c(=O)c(C(=O)[O-])cn(CCF)c3c2F)CC1.[Ni+2].c1cnc2c(c1)ccc1cccnc12 [complex 19, [Ni(flrx)2(phen)]] | 8 | 8.2 | 8 | 8.2 | 16 | 16.4 | 8.01(±0.28) × 10^4 M^−1 | 1.39(±0.04) × 10^13 M^−1s^−1 | 25.6 | 6.65(±0.15) × 10^4 M^−1 | 6.67(±0.18) × 10^12 M^−1s^−1 | 43.9 |
